Here are results for six molecules from US6936585B2, “Corticotropin releasing factor 2 receptor agonists” (priority 2002, dated 2005).

The target of test [1] is T1, CRF2R (Homo sapiens, UniProt Q13324).
T1 sequence (Q13324 1-411): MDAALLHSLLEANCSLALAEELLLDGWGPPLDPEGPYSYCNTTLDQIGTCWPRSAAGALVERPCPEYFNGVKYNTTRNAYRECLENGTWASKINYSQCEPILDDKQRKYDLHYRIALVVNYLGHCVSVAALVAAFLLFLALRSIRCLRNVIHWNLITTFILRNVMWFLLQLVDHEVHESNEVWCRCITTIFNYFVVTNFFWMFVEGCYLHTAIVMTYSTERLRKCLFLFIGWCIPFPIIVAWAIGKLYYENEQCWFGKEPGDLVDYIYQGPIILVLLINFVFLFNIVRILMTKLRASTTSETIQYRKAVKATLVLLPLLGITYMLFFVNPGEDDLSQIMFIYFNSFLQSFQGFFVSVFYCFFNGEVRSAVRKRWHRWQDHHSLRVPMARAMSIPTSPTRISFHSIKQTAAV
The test is described as follows: CRF2R agonist activation (EC50 / Emax), called comparative CRF binding. It counts as cell-based. The following applies: for Emax: read-out: CRF2R Emax; for EC50: read-out: CRF2R EC50. An outline of the steps: (§1)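 CRFR-expressing cells + peptide vs vehicle; read-out cAMP (lysate assay) or CRE-linked reporter expression (luciferase, CAT, fluorescent protein, alkaline phosphatase, etc.). Signal compared against vehicle-treated cells.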

For test [2], the target named is T2, CRF1R (Homo sapiens, UniProt P34998).
T2 sequence (P34998 24-415): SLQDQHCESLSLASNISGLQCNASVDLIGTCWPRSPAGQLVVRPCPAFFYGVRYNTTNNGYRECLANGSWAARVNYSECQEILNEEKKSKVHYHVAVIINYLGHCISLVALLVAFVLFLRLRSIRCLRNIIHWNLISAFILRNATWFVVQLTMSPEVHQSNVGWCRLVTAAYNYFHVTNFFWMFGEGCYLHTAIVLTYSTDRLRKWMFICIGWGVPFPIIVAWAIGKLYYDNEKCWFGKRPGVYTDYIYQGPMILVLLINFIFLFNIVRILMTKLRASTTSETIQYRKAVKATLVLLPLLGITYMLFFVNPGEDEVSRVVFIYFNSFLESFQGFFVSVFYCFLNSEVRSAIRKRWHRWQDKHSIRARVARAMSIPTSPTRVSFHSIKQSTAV
As to the kind of experiment: CRF1R agonist activation (EC50 / Emax), called comparative CRF binding. The following applies: for Emax: read-out: CRF1R Emax; for EC50: read-out: CRF1R EC50. It is filed as cell-based. An outline of the steps: as §1

Peptide text beside a SMILES is read from it.

The term Emax denotes the size of the effect at its maximum, as opposed to the concentration needed. For `CC[C@H](C)[C@H](N)C(=O)N[C@H](C(=O)N[C@@H](CC(C)C)C(=O)N[C@@H](CO)C(=O)N[C@@H](CC(C)C)C(=O)N[C@@H](CC(=O)O)C(=O)N[C@H](C(=O)N1CCC[C@H]1C(=O)N[C@H](C(=O)NCC(=O)N[C@@H](CC(C)C)C(=O)N[C@@H](CC(C)C)C(=O)N[C@@H](CCC(N)=O)C(=O)N[C@H](C(=O)N[C@@H](CC(C)C)C(=O)N[C@@H](CC(C)C)C(=O)N[C@@H](CCC(=O)O)C(=O)N[C@@H](CCC(N)=O)C(=O)N[C@@H](CCC(=O)O)C(=O)N[C@@H](CCCNC(=N)N)C(=O)N[C@@H](CCC(N)=O)C(=O)N[C@@H](CCC(=O)O)C(=O)N[C@@H](C)C(=O)N[C@@H](C)C(=O)N[C@@H](CCCNC(=N)N)C(=O)N[C@@H](CCC(=O)O)C(=O)N[C@@H](CCC(N)=O)C(=O)N[C@@H](C)C(=O)N[C@H](C(=O)N[C@H](C(=O)N[C@@H](CC(N)=O)C(=O)N[C@@H](C)C(=O)N[C@@H](CCCNC(=N)N)C(=O)N[C@H](C(=O)N[C@@H](CC(C)C)C(=O)N[C@@H](C)C(=O)N[C@@H](CCCNC(=N)N)C(=O)N[C@H](C(N)=O)C(C)C)[C@@H](C)CC)[C@@H](C)O)[C@@H](C)O)[C@@H](C)CC)[C@@H](C)CC)C(C)C)C(C)C` [compound 118] (H-IVLSLDVPIGLLQILLEQERQEAAREQATTNARILARV-NH2; N-terminus assumed), the maximal response (Emax) came out at 100% in test [1] and 5% in test [2].

One may read the EC50 as the midpoint of the concentration-response curve. For the molecule `CC[C@H](C)[C@H](N)C(=O)N[C@H](C(=O)N[C@@H](CC(C)C)C(=O)N[C@@H](CO)C(=O)N[C@@H](CC(C)C)C(=O)N[C@@H](CC(=O)O)C(=O)N[C@H](C(=O)N1CCC[C@H]1C(=O)N[C@H](C(=O)NCC(=O)N[C@@H](CC(C)C)C(=O)N[C@@H](CC(C)C)C(=O)N[C@@H](CCC(N)=O)C(=O)N[C@H](C(=O)N[C@@H](CC(C)C)C(=O)N[C@@H](CC(C)C)C(=O)N[C@@H](CCC(=O)O)C(=O)N[C@@H](CCC(N)=O)C(=O)N[C@@H](CCC(=O)O)C(=O)N[C@@H](CCCNC(=N)N)C(=O)N[C@@H](C)C(=O)N[C@@H](CCCNC(=N)N)C(=O)N[C@@H](C)C(=O)N[C@@H](C)C(=O)N[C@@H](CCCNC(=N)N)C(=O)N[C@@H](CCC(=O)O)C(=O)N[C@@H](CCC(N)=O)C(=O)N[C@@H](C)C(=O)N[C@H](C(=O)N[C@H](C(=O)N[C@@H](CC(N)=O)C(=O)N[C@@H](C)C(=O)N[C@@H](CCCNC(=N)N)C(=O)N[C@H](C(=O)N[C@@H](CC(C)C)C(=O)N[C@@H](C)C(=O)N[C@@H](CCCNC(=N)N)C(=O)N[C@H](C(N)=O)C(C)C)[C@@H](C)CC)[C@@H](C)O)[C@@H](C)O)[C@@H](C)CC)[C@@H](C)CC)C(C)C)C(C)C` [compound 119] (H-IVLSLDVPIGLLQILLEQERARAAREQATTNARILARV-NH2; N-terminus assumed), the concentration giving a half-maximal response (EC50) was 3.57 nM in test [1] and greater than 100 nM in test [2]. Further, the Emax in test [1] was determined as 95%; in test [2] it was 3%.

In the case of `CC[C@H](C)[C@H](N)C(=O)N[C@H](C(=O)N[C@@H](CC(C)C)C(=O)N[C@@H](CO)C(=O)N[C@@H](CC(C)C)C(=O)N[C@@H](CCC(=O)O)C(=O)N[C@H](C(=O)N1CCC[C@H]1C(=O)N[C@H](C(=O)NCC(=O)N[C@@H](CC(C)C)C(=O)N[C@@H](CC(C)C)C(=O)N[C@@H](CCC(N)=O)C(=O)N[C@H](C(=O)N[C@@H](CC(C)C)C(=O)N[C@@H](CC(C)C)C(=O)N[C@@H](CCC(=O)O)C(=O)N[C@@H](CCC(N)=O)C(=O)N[C@@H](C)C(=O)N[C@@H](CCCNC(=N)N)C(=O)N[C@@H](C)C(=O)N[C@@H](CCCNC(=N)N)C(=O)N[C@@H](C)C(=O)N[C@@H](C)C(=O)N[C@@H](CCCNC(=N)N)C(=O)N[C@@H](CCC(=O)O)C(=O)N[C@@H](CCC(N)=O)C(=O)N[C@@H](C)C(=O)N[C@H](C(=O)N[C@H](C(=O)N[C@@H](CC(N)=O)C(=O)N[C@@H](C)C(=O)N[C@@H](CCCNC(=N)N)C(=O)N[C@H](C(=O)N[C@@H](CC(C)C)C(=O)N[C@@H](C)C(=O)N[C@@H](CCCNC(=N)N)C(=O)N[C@H](C(N)=O)C(C)C)[C@@H](C)CC)[C@@H](C)O)[C@@H](C)O)[C@@H](C)CC)[C@@H](C)CC)C(C)C)C(C)C` [compound 120] (H-IVLSLEVPIGLLQILLEQARARAAREQATTNARILARV-NH2; N-terminus assumed), in test [1], the EC50 worked out at 69.9 nM and the Emax was found to be 100%. For the same molecule, in test [2], the EC50 was no less than 100 nM and the Emax was determined as 7%.

For `CC[C@H](C)[C@H](N)C(=O)N[C@H](C(=O)N[C@@H](CC(C)C)C(=O)N[C@@H](CO)C(=O)N[C@@H](CC(C)C)C(=O)N[C@@H](CC(=O)O)C(=O)N[C@H](C(=O)N1CCC[C@H]1C(=O)N[C@H](C(=O)NCC(=O)N[C@@H](CC(C)C)C(=O)N[C@@H](CC(C)C)C(=O)N[C@@H](CCC(N)=O)C(=O)N[C@H](C(=O)N[C@@H](CC(C)C)C(=O)N[C@@H](CC(C)C)C(=O)N[C@@H](CCC(=O)O)C(=O)N[C@@H](CCC(N)=O)C(=O)N[C@@H](C)C(=O)N[C@@H](CCCNC(=N)N)C(=O)N[C@@H](C)C(=O)N[C@@H](CCC(=O)O)C(=O)N[C@@H](C)C(=O)N[C@@H](C)C(=O)N[C@@H](CCCNC(=N)N)C(=O)N[C@@H](CCC(=O)O)C(=O)N[C@@H](CCC(N)=O)C(=O)N[C@@H](C)C(=O)N[C@H](C(=O)N[C@H](C(=O)N[C@@H](CC(N)=O)C(=O)N[C@@H](C)C(=O)N[C@@H](CCCNC(=N)N)C(=O)N[C@H](C(=O)N[C@@H](CC(C)C)C(=O)N[C@@H](C)C(=O)N[C@@H](CCCNC(=N)N)C(=O)N[C@H](C(N)=O)C(C)C)[C@@H](C)CC)[C@@H](C)O)[C@@H](C)O)[C@@H](C)CC)[C@@H](C)CC)C(C)C)C(C)C` [compound 122] (H-IVLSLDVPIGLLQILLEQARAEAAREQATTNARILARV-NH2; N-terminus assumed), the Emax in test [1] was found to be 97%; in test [2], 10.7%.

As to `CC[C@H](C)[C@H](N)C(=O)N[C@H](C(=O)N[C@@H](CC(C)C)C(=O)N[C@@H](CO)C(=O)N[C@@H](CC(C)C)C(=O)N[C@@H](CC(=O)O)C(=O)N[C@H](C(=O)N1CCC[C@H]1C(=O)N[C@H](C(=O)NCC(=O)N[C@@H](CC(C)C)C(=O)N[C@@H](CC(C)C)C(=O)N[C@@H](CCC(N)=O)C(=O)N[C@H](C(=O)N[C@@H](CC(C)C)C(=O)N[C@@H](CC(C)C)C(=O)N[C@@H](CCC(=O)O)C(=O)N[C@@H](CCC(N)=O)C(=O)N[C@@H](C)C(=O)N[C@@H](CCCNC(=N)N)C(=O)N[C@@H](CCC(N)=O)C(=O)N[C@@H](CCC(=O)O)C(=O)N[C@@H](C)C(=O)N[C@@H](C)C(=O)N[C@@H](CCCNC(=N)N)C(=O)N[C@@H](CCC(=O)O)C(=O)N[C@@H](CCC(N)=O)C(=O)N[C@@H](C)C(=O)N[C@H](C(=O)N[C@H](C(=O)N[C@@H](CC(N)=O)C(=O)N[C@@H](C)C(=O)N[C@@H](CCCNC(=N)N)C(=O)N[C@H](C(=O)N[C@@H](CC(C)C)C(=O)N[C@@H](C)C(=O)N[C@@H](CCCNC(=N)N)C(=O)N[C@H](C(N)=O)C(C)C)[C@@H](C)CC)[C@@H](C)O)[C@@H](C)O)[C@@H](C)CC)[C@@H](C)CC)C(C)C)C(C)C` [compound 123] (H-IVLSLDVPIGLLQILLEQARQEAAREQATTNARILARV-NH2; N-terminus assumed), the Emax in test [1] came out at 93.8%; in test [2] it was 9.6%.

As to `CC[C@H](C)[C@H](N)C(=O)N[C@H](C(=O)N[C@@H](CC(C)C)C(=O)N[C@@H](CO)C(=O)N[C@@H](CC(C)C)C(=O)N[C@@H](CC(=O)O)C(=O)N[C@H](C(=O)N1CCC[C@H]1C(=O)N[C@H](C(=O)NCC(=O)N[C@@H](CC(C)C)C(=O)N[C@@H](CC(C)C)C(=O)N[C@@H](CCC(N)=O)C(=O)N[C@H](C(=O)N[C@@H](CC(C)C)C(=O)N[C@@H](CC(C)C)C(=O)N[C@@H](CCC(=O)O)C(=O)N[C@@H](CCC(N)=O)C(=O)N[C@@H](C)C(=O)N[C@@H](CCCCN)C(=O)N[C@@H](CCC(N)=O)C(=O)N[C@@H](CCC(=O)O)C(=O)N[C@@H](C)C(=O)N[C@@H](C)C(=O)N[C@@H](CCCNC(=N)N)C(=O)N[C@@H](CCC(=O)O)C(=O)N[C@@H](CCC(N)=O)C(=O)N[C@@H](C)C(=O)N[C@H](C(=O)N[C@H](C(=O)N[C@@H](CC(N)=O)C(=O)N[C@@H](C)C(=O)N[C@@H](CCCNC(=N)N)C(=O)N[C@H](C(=O)N[C@@H](CC(C)C)C(=O)N[C@@H](C)C(=O)N[C@@H](CCCNC(=N)N)C(=O)N[C@H](C(N)=O)C(C)C)[C@@H](C)CC)[C@@H](C)O)[C@@H](C)O)[C@@H](C)CC)[C@@H](C)CC)C(C)C)C(C)C` [compound 124] (H-IVLSLDVPIGLLQILLEQAKQEAAREQATTNARILARV-NH2; N-terminus assumed), in test [1], the EC50 was 3.49 nM and the Emax amounted to 94%. Besides, in test [2], the EC50 is greater than 100 nM and the Emax is 6%.
